# From patent publication US20150126464A1, “THERAPEUTIC DRUG AND THERAPEUTIC METHOD FOR NEUROLOGICAL DISEASES INCLUDING ALZHEIMER'S DISEASE ASSOCIATED WITH 1,25D3-MARRS” (priority 2013, published 2015)
# Structures can show the parent of a compound that is named as a salt.
# Key:
# [1] = test system: rat cortical neurons (SD E18); test: Measurement of axon density in cortical neurons with or without 1,25D3-MARRS knockdown; conditions: 1 μM, 4 days, vs vehicle; for density of pNF-H-positive axons per MAP2-positive neuron, control groups: control (no 1,25D3-MARRS knockdown) cortical neurons; for density of pNF-H-positive axons per MAP2-positive neuron, 1,25D3-MARRS knockdown groups: neurons transfected with siRNA for 1,25D3-MARRS (400 nM)
# From the text: siRNAs were transfected into rat cortical neurons (SD E18) according to the manufacturer's protocol for nucleofection (Lonza, Bazel, Switzerland). […] Two days after the transfection, the cells were fixed and double-immunostained with a monoclonal antibody against a neuron marker MAP2a/2b (1:500, NeoMarker, Fremont, Calif., USA) and Ab099 clone, a specific antibody for 1,25D3-MARRS (1:500, provided by Dr. Nemere).
# Twelve to fourteen images were captured. The lengths of the pNF-H-positive axons were measured using an image analyzer Neurocyte (Kurabo), which automatically traces and measures neurite length without measuring the cell bodies. The sum of the axon lengths was divided by the number of MAP2-positive neurons.
# 1,25D3-MARRS was knocked down using siRNA transfection. […] Two days after the siRNA transfection, denosomin (1 μM) or a vehicle solution was applied to the cells. Further, after 4-day incubation, the cells were double-immunostained for pNF-H and MAP2 to measure the axonal length per neuron.
# 5XFAD mice [2] = test: Novel object recognition test in 5XFAD mice (Alzheimer's disease model); type: in vivo, mouse
# From the text: Transgenic mice (5XFAD) as an animal model of AD were obtained from the Jackson Laboratory (Bar Harbor, Me., USA). The 5XFAD mice overexpress human APP695 cDNA having Swedish mutation (K670N and M671L), Florida mutation (I716V) and London mutation (V717I) and human PS1 cDNA (M146L and L286V) under the transcriptional control of the neuron-specific mouse Thy-1 promoter (Oakley, H. et al., J Neurosci, 26, 10129-10140, 2006). They were maintained by crossing hemizygous transgenic mice with B6/SJL F1 breeders.
# To investigate the effect of diosgenin on 5XFAD, hemizygous 5XFAD mice (female, 6 to 8 months old) and non-transgenic littermate wild-type mice (female, 6 to 8 months old) were used. These mice were obtained by crossing hemizygous 5XFAD mice and B6/SJL F1 mice. All mice were housed with free access to food and water and were kept in a controlled environment (22±2° C., 50±5% humidity, 12-h light/dark cycle starting at 7:00 am).
# Diosgenin was dissolved in dimethyl sulfoxide (DMSO) at 10 times the final concentration to give a stock solution. The stock solution was diluted in physiological saline to the final concentration immediately before treatment. The diosgenin solution was intraperitoneally administered to 5XFAD mice once a day (10 μmol/kg=4.14 mg/kg) for 20 days. On the last day of administration (Day 20), each mouse was housed in a separate open-field box made of polyvinyl chloride (33 cm×[…]; height: 26.5 cm) and habituated to the environment for 10 min. […]
# For each mouse of Example 1, Comparative Examples 1 and 2, and Reference Example 1, the path during the 10-minute habituation was tracked using a digital camera system. The distance each mouse traveled during the 10 minutes was analyzed as locomotion activity with EthoVision 3.0 (Noldus, Wageningen, The Netherlands). […] In the present invention, the ratio (%) of the exploration time for the novel object to the total exploration time was calculated as an exploration preferential index. […]
# [3] = Body weight during dioscin administration; type: in vivo, mouse
# Protocol: (§1) Dioscin in an amount of 30 μmol/kg/day was orally administered to normal mice (ddY mice, male, 6 weeks old) for 4 days. Dioscin (Chromadex, Irvine, Calif., USA) was dissolved in ethanol at 10 times the final concentration to give a stock solution, and the stock solution was diluted in a 5% aqueous solution of glucose to the final concentration. One hour after the last administration, the mice were used in the test.
# Dioscin (30 μmol/kg/day) was orally administered to 5XFAD mice (male, 20 weeks old) for 6 days. One hour after the last administration, the training session was initiated.
# normal mice = test: Novel object recognition test in normal mice; type: in vivo, mouse; conditions: normal ddY mice, dioscin 30 μmol/kg/day orally 4 days
# Protocol: Diosgenin (Wako Pure Chemical Industries, Ltd., Osaka, Japan) was dissolved in ethanol at 10 times the final concentration to give a stock solution, and the stock solution was diluted in a 5% aqueous solution of glucose to the final concentration. The diosgenin solution was intraperitoneally administered to normal mice (ddY mice, male, 6 weeks old) once a day (10 μmol/kg/day) for 5 or 6 days. One hour after the last administration, each mouse was housed in a separate open-field box made of polyvinyl chloride (33 cm×28 cm; height: 26.5 cm), habituated to the environment for 10 minutes, and used in the test.
# Using the mice of Example 8 and Comparative Example 11, a novel object recognition test was performed to evaluate the object recognition memory. Testing was carried out in a dimly illuminated room (100 lux). The test was performed as described in Joyashiki, E. et sl., Int J Neurosci, 121, 181-190, 2011 and Tohda, C. et al., Int J Neurosci, 121, 641-648, 2011, written by the inventors and others, except that the time interval between a training session and a test session was 48 hours. As a locomotion index, the path of each mouse was tracked using a digital camera system. The distance each mouse traveled during the 10 minutes was analyzed as locomotion activity with EthoVision 3.0 (Noldus, Wageningen, The Netherlands).
# The diosgenin solution was intraperitoneally administered to normal mice (C57BL/6, male, 8 weeks old) (100 μmol/kg/day) for 14 days. On the day after the 14th administration, the mice were used in the test.
# Using the mice of Example 9 and Comparative Example 12, the novel object recognition test was performed. The test was performed under the conditions as described above.
# as §1, with “One hour after the last administration, the mice were used in the test.” left out
# 5XFAD mice [4] = test: Immunohistochemistry of brain slices of 5XFAD mice (amyloid plaques, PHF-tau, abnormal axons, presynapses); type: in vivo, mouse; conditions: vs vehicle-treated 5XFAD, diosgenin 10 μmol/kg, memantine hydrochloride 200 μmol/kg/day i.p. 20 days
# Protocol: One day after the novel object recognition test, the mice were anesthetized and transcardially perfused with cold physiological saline. The brains were carefully removed from the skull, immediately immersed in 10 to 30% sucrose-PBS and stored at -80° C. The brains were cut in 20-μm successive coronal slices every 100 μm in the parietal area (bregma 1.4-2 mm) sections using a cryostat (C[…], Leica, Heidelberg, Germany). The slices were fixed with 4% paraformaldehyde and stained with a polyclonal antibody against Aβ (1-40/42) (1:300) (Chemicon, Temecula, Calif., USA), a monoclonal antibody against pNF-H (1:500) (Covance, Emeryville, Calif., USA), a monoclonal antibody against synaptophysin (1:500) (Sigma-Aldrich), and a monoclonal antibody against PHF-tau (Thermo Scientific, Rockford, Ill., USA) at 4° C. for 20 hours. […] Three successive brain slices of the frontal cortex and five successive slices of the hippocampus were captured from a mouse for quantification. Extracellular amyloid plaques were determined by the size (greater than 50 μm in width), and the area of amyloid plaques was measured using the image analyzing software ImageJ. The area of the pNF-H-positive abnormal bulb-like axons was measured using ImageJ for every amyloid plaque in the fluorescent images (324 μm×430 μm). The areas of the synaptophysin-positive presynaptic boutons in every amyloid plaque were measured in fluorescent images (324 μm×430 μm) using Image J. The areas of PHF-tau in every amyloid plaque and outer amyloid plaques were measured in fluorescent images (324 μm×430 μm) using ImageJ.
structure (smiles),measurement,setting,value
C[C@@H]([C@H]1CC[C@H]2[C@@H]3CC=C4C[C@@H](O)CC[C@]4(C)[C@H]3CC[C@]12C)[C@H]1CC=C(CO)C(=O)O1 [denosomin],"density of pNF-H-positive axons per MAP2-positive neuron, control groups",[1],significantly increased
same,"density of pNF-H-positive axons per MAP2-positive neuron, 1,25D3-MARRS knockdown groups",[1],almost completely inhibited
C[C@@H]1CC[C@@]2(OC1)O[C@H]1C[C@H]3[C@@H]4CC=C5C[C@@H](O[C@@H]6O[C@H](CO)[C@@H](O[C@@H]7O[C@@H](C)[C@H](O)[C@@H](O)[C@H]7O)[C@H](O)[C@H]6O[C@@H]6O[C@@H](C)[C@H](O)[C@@H](O)[C@H]6O)CC[C@]5(C)[C@H]4CC[C@]3(C)[C@H]1[C@@H]2C [dioscin],behavior index of exploratory behavior for the novel object,"5XFAD mice [2]; dioscin 30 μmol/kg/day orally 6 days, one hour training-test interval",higher than 50%
same,body weight,"[3]; 5XFAD mice, dioscin 30 μmol/kg/day orally 6 days",None of the groups showed marked change
same,transition of body weight,"[3]; normal ddY mice, dioscin 30 μmol/kg/day orally 4 days",no significant difference
same,behavior index of exploratory behavior for the novel object,normal mice,higher than 50%
"C=C1/C(=C\C=C2/CCC[C@]3(C)[C@@H]([C@H](C)CCCC(C)(C)O)CC[C@@H]23)C[C@@H](O)C[C@@H]1O [DHVD3, 1α,25-dihydroxy vitamin D3, reference compound]","density of pNF-H-positive axons per MAP2-positive neuron, control groups",[1],significantly increased
same,"density of pNF-H-positive axons per MAP2-positive neuron, 1,25D3-MARRS knockdown groups",[1],did not show any difference
"CC12CC3CC(C)(C1)CC(N)(C3)C2 [memantine, Memantine hydrochloride, reference compound]","novel object preferential index (exploration preferential index), test session","5XFAD mice [2]; i.p. once a day for 20 days, diosgenin 10 μmol/kg, memantine hydrochloride 200 μmol/kg/day, 30 min training-test interval",50%
same,area of abnormal axons (swollen axon area) per amyloid plaque in the cerebral cortex,5XFAD mice [4],not significantly reduced
same,area of abnormal axons (swollen axon area) per amyloid plaque in the hippocampus,5XFAD mice [4],inversely significantly increased
same,total area of PHF-tau in the cerebral cortex,5XFAD mice [4],not significantly different
same,total area of PHF-tau in the hippocampus,5XFAD mice [4],inversely significantly increased
same,total area of amyloid plaques in the hippocampus,5XFAD mice [4],significantly reduced in the hippocampus
